Measured values reported in US8603498B2, “Lipo-phosphated or lipo-sulphated compound, compositions comprising it and topical uses thereof” (Sederma, S.A.S., priority 2010, dated 2013).

Assays:
hydroxylated ceramides = test: Hydroxylated ceramides in keratinocytes by HPTLC; assay type: cell-based, human; details: 5 ppm, vs control
Experimental: The same protocol was followed as before but a larger quantity of keratinocyes was used on this occasion because of the limits of detection of the apparatus. After 7 days, the layers were rinsed, lipids extracted using solvents before being deposited on a thin-layer chromatography plate using an automated device. After migration and detection, the bands were analysed and quantified based on a range of standard lipids deposited on the same plate.
At the same time as the HPTLC cholesterol assay, an assay of hydroxylated and non-hydroxylated ceramides was carried out on the extracts.

fibroblasts = test: Lipid production in fibroblasts; assay type: cell-based
From the text: (§1) This lipid production by the Lipo-Phosphomalate was not observed in fibroblasts or melanocytes. It is therefore a specific effect related to the metabolism of keratinocyte during its differentiation.

melanocytes = test: Lipid production in melanocytes; assay type: cell-based
From the text: as §1

hyaluronic acid = test: Synthesis of hyaluronic acid by human keratinocytes (ELISA); assay type: cell-based; details: for hyaluronic acid ng/10^e6 cells: 3 days, supernatant
Experimental: Protocol: Human keratinocytes are humains were cultivated in MW24 plates for 24 h. Cells were contacted or not with the Lipo-Phosphomalate for 3 days. Culture surpernatants were taken and an assay of the quantity of hyaluronic acid was achieved. Retinoic acid was used as the positive control.

CD44 = CD44 synthesis by human keratinocytes (immunological labeling); assay type: cell-based; details: 5 ppm, 22 days
From the text: Human keratinocytes were cultivitated in 35 mm box to confluence. Cells are contacted or not with the Lipo-Phosphomalate for 22 days. At the end of this contact period, the cells are fixed and an immunological labeling of the CD44 is made using specific antibodies.

laminin = test: Laminin synthesis by human keratinocytes (ELISA); assay type: cell-based; details: for laminin ng/10^e6cells: 3 days, supernatant
Experimental: Human keratinocytes are humains were cultivated in MW24 plates for 24 h. Cells were contacted or not with the Lipo-Phosphomalate for 3 days. Culture surpernatants were taken and an assay of the quantity of laminin was achieved. TGF-β1 was used as the positive control.

collagen I = test: Synthesis of collagen I on human dermal fibroblast (immunolabeling); assay type: cell-based; details: for collagen I AFU mean: 7 days
Experimental: Normal human fibroblasts (NHF) are cultivated in MW24 plates for 24 hours. The cells are contacted or not with the Lipo-Phosphomalate of the invention at various concentrations for 7 days. The synthesis of collagen I produced by the cells is then quantified by immunolabeling fixed on the layers using a specific antibody. Quantification by image analysis is then performed on the photos. TGF-β1 is used as positive control.
An analysis of variance was performed on the data (cases treated compared with untreated cases). In the case of identity of variances, a Student't test was then performed on the means.

G3PDH = G3PDH activity in differentiating 3T3-L1 cells; assay type: cell-based
Experimental: (§2) 3T3-L1 cells were cultivated until sub-confluence, then induced to differentiate with the appropriate mixture with or without the Lipo-Phosphomalate at different concentrations. After 3 days of incubation, the differenciation mixture is replaced by a new maintaining culture medium, in the presence or not of the Lipo-Phosphomalate. After 3 days of incubation, the cell layers are collected and the activity of G3PDH is assayed.

triglycerides = test: Synthesis of intracellular triglycerides in 3T3-L1 cells (enzymatic method); assay type: cell-based
Experimental: as §2, with “quantity” for “cell layers are collected and the activity”, “intracellular triglycerides” for “G3PDH”, “measured by enzymatic method.” for “assayed.”

3T3-L1 cells = test: Lipid incorporation by 3T3-L1 cells (oil red, image analysis); assay type: cell-based
Experimental: 3T3-L1 cells are sowed and cultivated for 4 days (multiplication). Follow a differentiation phase (incubation with a classic differentiation mixture) and then a maturation phase (with a maturation mixture) in the presence or not of the Lipo-Phosphomalate at different concentrations. At the end of this period, cells were washed, fixed and coloured with oil red. The cell layers were photographed digitally and the red color is quantified by image analysis. The surface percentages of red oil, reported in the table below, were established compared to untreated control cells, and the test validated by comparison to pioglytazone (10 μM), positive control for stimulation of differentiation.

tyrosinase = biological target: T1, tyrosinase (Homo sapiens, UniProt P14679); test: Tyrosinase activity of human melanocytes; assay type: cell-based; details: 5 days
T1 construct: endogenous in cells; host or cells: human melanocytes (homogenates)
T1 sequence (P14679 19-529): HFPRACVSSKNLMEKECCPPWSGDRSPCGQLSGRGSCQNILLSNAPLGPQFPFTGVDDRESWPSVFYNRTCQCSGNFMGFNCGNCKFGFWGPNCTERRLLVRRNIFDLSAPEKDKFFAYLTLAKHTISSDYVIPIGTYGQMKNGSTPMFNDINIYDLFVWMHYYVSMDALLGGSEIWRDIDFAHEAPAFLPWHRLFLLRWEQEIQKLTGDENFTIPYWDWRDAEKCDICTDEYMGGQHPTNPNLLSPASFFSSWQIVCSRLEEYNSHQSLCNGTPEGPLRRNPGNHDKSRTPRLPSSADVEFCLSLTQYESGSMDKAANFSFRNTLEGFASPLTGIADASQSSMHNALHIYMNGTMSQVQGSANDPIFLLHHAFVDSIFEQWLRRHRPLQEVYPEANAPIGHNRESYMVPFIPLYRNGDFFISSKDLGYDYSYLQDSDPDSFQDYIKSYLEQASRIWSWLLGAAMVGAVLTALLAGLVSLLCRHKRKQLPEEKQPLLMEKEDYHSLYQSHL
Experimental: Human melanocyte are sowed and contacted with the […] for 5 days. At the end of the incubation period, the residual tyrosinase activity was measured in cell homogenates.

## CCCCCCCCCCCCCCOC(=O)CC(OP(=O)(O)O)C(=O)O (stereo not shown) [Lipo-Phosphomalate, 2-phosphate-succinic-acid-4-tetradecyle ester]
Hydroxylated ceramides
  Hydroxylated Ceramides Change (number of times): ×7.5
fibroblasts
  lipid production (cholesterol, ceramides): not observed
melanocytes
  lipid production (cholesterol, ceramides): not observed
Hyaluronic acid; 1.67 ppm
  hyaluronic acid % Change/control: +16%; p < 0.01
  hyaluronic acid ng/10^e6 cells: 1015 +/− 46 ng/10^e6 cells
Hyaluronic acid; 5 ppm
  hyaluronic acid % Change/control: +57%; p < 0.01
  hyaluronic acid ng/10^e6 cells: 1374 +/− 50 ng/10^e6 cells
Hyaluronic acid; 8.33 ppm
  hyaluronic acid % Change/control: +69%; p < 0.01
  hyaluronic acid ng/10^e6 cells: 1480 +/− 51 ng/10^e6 cells
CD44
  CD44 % Variation/control: +587%; p <
  CD44 UFA/10^6 cells: 27.20 +/− 16.5 UFA/10^6 cells
  CD44 variation/control (times): 0.01 => ×7
laminin; 1.67 ppm
  laminin % Variation/control: +64%; p < 0.01
  laminin ng/10^e6cells: 190 +/− 11 ng/10^e6cells
laminin; 5 ppm
  laminin % Variation/control: +187%; p < 0.01
  laminin ng/10^e6cells: 333 +/− 10 ng/10^e6cells
laminin; 8.33 ppm
  laminin % Variation/control: +196%; p < 0.01
  laminin ng/10^e6cells: 343 +/− 10 ng/10^e6cells
Collagen I; Eq 1%
  collagen I AFU mean: 8.1 +/− 5.6 AFU
Collagen I; Eq 1%, p = 0.09
  collagen I % Variation/control: +60%;
Collagen I; Eq 3%
  collagen I % Variation/control: +315%;
  collagen I AFU mean: 21.1 +/− 13.8 AFU
Collagen I; Eq 5%
  collagen I % Variation/control: +496%;
  collagen I AFU mean: 30.4 +/− 14.6 AFU
G3PDH; 10 ppm
  G3PDH activity % Change/control: +158%; p < 0.01
G3PDH; 15 ppm
  G3PDH activity % Change/control: +225%; p < 0.01
triglycerides; 10 ppm
  intracellular triglycerides % Change/control: +112%; p < 0.01
triglycerides; 15 ppm
  intracellular triglycerides % Change/control: +210%; p < 0.01
3T3-L1 cells; 10 ppm
  surface of red oil % Change/control: +171%; p < 0.01
3T3-L1 cells; 15 ppm
  surface of red oil % Change/control: +294%; p < 0.01
3T3-L1 cells; 20 ppm
  surface of red oil % Change/control: +481%; p < 0.01
tyrosinase; 10 ppm
  tyrosinase activity Variation (%): −21%; p < 0.01
tyrosinase; 12 ppm
  tyrosinase activity Variation (%): −28%; p < 0.01
tyrosinase; 15 ppm
  tyrosinase activity Variation (%): −31%; p < 0.01
